Source: patent US4762781A, “Antibodies capable of specifically identifying haptenic groups, their preparation and their use and to new antigens permitting their preparation” (priority 1983, dated 1988)
pKd: −log10 of the molar value. Entries after “also recorded” stand apart in the source; their conditions may differ. Where two headings read alike, the source gives them in different places.

Experiments:
anti-DA antibodies = assay: Equilibrium dialysis competition, displacement of (3H) DA-G-ALM; type: binding, rabbit; details: for affinity constant KA: displacement of (3H) DA-G-ALM from anti-DA antibodies; for affinity constant KA / KA: 1200 min; for KA: conjugates, cross-reactivity with anti-DA antibodies
anti-TA antibodies = assay: Equilibrium dialysis competition, displacement of (3H)-TA-G-ALM; type: binding, rabbit; details: for affinity constant KA: displacement of (3H)-TA-G-ALM from anti-TA antibodies; for affinity constant KA / KA: 1200 min; for KA: conjugates, slight immunoreactivity with anti-TA antibodies
anti-GABA antiserum = assay: Equilibrium dialysis competition with tracer (3H) GABA-GA-PPL; type: binding, rabbit; details: for cross-reactivity, times less than that of the GABA-GA-PPL conjugate: anti-GABA antiserum
Protocol: The antibody solution is placed on one side of the membrane. Each conjugate of catecholamine is mixed with an equal volume of radioactive ligand before being placed on the other side of the membrane. The incubation solution of each antiserum is a citrate buffer 0.1M (pH 6.2) containing 1 mg/ml of bovine serum albumin (BSA) and 10 mM of sodium azide (N3 Na). The final volume is 2×150 microliters. This is left to incubate at 4° C. for 20 hours. Next the beta radioactivity in a sample of 100 microliters taken from each side of the membrane is counted.
Studies of specificity were conducted using the method of equilibrium dialysis, by competition of the tracer (^3 H) GABA-GA-PPL and the various conjugated analogues GABA-GA-PPL, glycine-GA-PPL, etc.

GABA antiserum = assay: Immunocytochemical absorption controls of GABA antiserum on rat brain sections; set-up: species or system rabbit; details: absorption with a 10^-3 M solution
Protocol: Rat brains were fixed by perfusion with a 5% solution of glutaraldehyde in a cacodylate buffer, 0.1M, pH 7.5. The brain was cut in slices approximately 4 mm thick and then fixed again for 1.5-2 hours using the same fixative.
Sections of 50 micrometers were incubated with GABA antiserum diluted to 1/1,500. This antiserum was visualized using the peroxidase-antiperoxidasemethod, with diaminobenzidine as the chromogen.

Anti-NA antibodies = type: binding, rabbit
Anti-W antibodies = assay: ELISA competition, affinity and specificity of anti-indolamine antibodies; type: binding, rabbit
Protocol: This study was performed using an ELISA test (Enzyme-linked immunosorbent assay). The plates were coated with a solution of BSA-G-indolamine conjugate and then saturated with bovine serum. they were then placed in contact with the antibody solution under study, and then with anti-(rabbitgammaglobulin) goat antibodies conjugated with peroxidate of horseradish.

[1] = concentrations between 10^-9 M and 10^-8 M

Structure (SMILES): CNC(=O)[C@H](CCCCNCCCCCNCCc1ccc(O)c(O)c1)NC(C)=O [DA-G-ALM]
- displacement of (3H) DA-G-ALM / recognition by anti-DA antibodies (anti-DA antibodies): No displacement
- affinity constant KA (anti-DA antibodies): 6.7×10^7 l.mol.^-1
- displacement of (3H) DA-G-ALM / recognition by anti-DA antibodies (anti-DA antibodies; listed as DA-b-ALM): best displacement
- displacement of (3H)-TA-G-ALM / recognition by anti-TA antibodies (anti-TA antibodies): No displacement; also recorded: no affinity
- affinity constant KA (anti-TA antibodies): 2.6×10^4 l.mol.^-1

Structure (SMILES): NCCCC(=O)O [GABA, gamma-aminobutyric acid, reference compound]
- displacement of the radioactive ligand (3H) GABA-GA-PPL (anti-GABA antiserum; even at a concentration of 10^-5 M): incapable of displacing
- coloration after absorption of the serum (GABA antiserum): very great reduction in coloration

Structure (SMILES): O=C(O)CCCNCCCCCNCCCC[C@H](NC(=O)[C@H](Cc1ccccc1)NC(=O)[C@@H]1CCCN1)C(=O)O [GABA--GA--lysine]
- pKd (anti-GABA antiserum; dissociation constant of the anti-GABA antibodies for the antigen): 7.70

Structure (SMILES): CNC(=O)[C@H](CCCCNCCCCCN[C@@H](Cc1ccc(O)c(O)c1)C(=O)O)NC(C)=O [L-DOPA--G--ALM]
- KA (anti-DA antibodies): 3.8 × 10^5 1. mol.^-1
- KA (anti-TA antibodies): 3.3 × 10^5 1. mol.^-1

Structure (SMILES): NC[C@H](O)c1ccc(O)c(O)c1 [NA, norepinephrine, reference compound]
- displacement (Anti-NA antibodies): no displacement

Structure (SMILES): CNC(=O)[C@H](CCCCNCCCCCNCC(O)c1ccc(O)c(O)c1)NC(C)=O (some centres unmarked) [NA-G-ALM]
- reactivity, times lower than that of DA-G-ALM (anti-DA antibodies; anti-DA antibodies): 53 times
- affinity constant KA (anti-DA antibodies): 5×10^5 l.mol.^-1
- displacement of (3H)-TA-G-ALM / recognition by anti-TA antibodies (anti-TA antibodies): No displacement
- affinity constant KA (anti-TA antibodies): 1.4×10^4 l.mol.^-1
- displacement (Anti-NA antibodies): best displacement
- KA (Anti-NA antibodies; 1200 min): 3.8e+07 L/mol

Structure (SMILES): CNC(=O)[C@H](CCCCNCCCCCNCC(O)c1ccc(O)cc1)NC(C)=O (some centres unmarked) [OA--G--ALM]
- KA (anti-DA antibodies): 5 × 10^4 1. mol.^-1
- KA (anti-TA antibodies): 5.9 × 10^5 1. mol.^-1

Structure (SMILES): NCCc1ccc(O)cc1 [TA, p-tyramine, reference compound]
- displacement of (3H)-TA-G-ALM / recognition by anti-TA antibodies (anti-TA antibodies): incapable of displacing
- affinity constant KA (anti-TA antibodies): 10^4 l.mol.^-1

Structure (SMILES): CNC(=O)[C@H](CCCCNCCCCCNCCc1ccc(O)cc1)NC(C)=O [TA-G-ALM]
- displacement of (3H) DA-G-ALM / recognition by anti-DA antibodies (anti-DA antibodies): No displacement; also recorded: do not recognize
- KA (anti-DA antibodies): 3.1 × 10^4 1. mol.^-1
- affinity constant KA (anti-TA antibodies): 7×10^7 l.mol.^-1

Structure (SMILES): N[C@@H](Cc1c[nH]c2ccccc12)C(=O)O [Tryptophane, L-tryptophane]
- displacement / identification by anti-W antibodies (Anti-W antibodies): only weakly identified

Structure (SMILES): O=C(O)CC(NCCCCCNCCCC[C@H](NC(=O)[C@H](Cc1ccccc1)NC(=O)[C@@H]1CCCN1)C(=O)O)C(=O)O (some centres unmarked) [aspartate conjugate]
- reactivity with anti-GABA antiserum (anti-GABA antiserum; [1]): No reactivity

Structure (SMILES): O=C(O)CCNCCCCCNCCCC[C@H](NC(=O)[C@H](Cc1ccccc1)NC(=O)[C@@H]1CCCN1)C(=O)O [beta-alanine conjugate]
- cross-reactivity, times less than that of the GABA-GA-PPL conjugate (anti-GABA antiserum): 175 times

Structure (SMILES): NCCc1ccc(O)c(O)c1 [dopamine, reference compound]
- affinity constant KA (anti-DA antibodies): 6.7×10^3 l.mol.^-1
- displacement of (3H) DA-G-ALM by unmodified hapten (anti-DA antibodies; even at a concentration of 10^-6 M): not capable of displacing

Structure (SMILES): O=C(O)CCC(NCCCCCNCCCC[C@H](NC(=O)[C@H](Cc1ccccc1)NC(=O)[C@@H]1CCCN1)C(=O)O)C(=O)O (some centres unmarked) [glutamate conjugate]
- reactivity with anti-GABA antiserum (anti-GABA antiserum; [1]): No reactivity

Structure (SMILES): O=C(O)CNCCCCCNCCCC[C@H](NC(=O)[C@H](Cc1ccccc1)NC(=O)[C@@H]1CCCN1)C(=O)O [glycine conjugate]
- cross-reactivity, times less than that of the GABA-GA-PPL conjugate (anti-GABA antiserum): 795 times

Structure (SMILES): O=C(O)[C@H](CCCCNCCCCCNCCS(=O)(=O)O)NC(=O)[C@H](Cc1ccccc1)NC(=O)[C@@H]1CCCN1 [taurine conjugate]
- reactivity with anti-GABA antiserum (anti-GABA antiserum): on the same order or magnitude as with the conjugate of aspartate or glutamate
